Experimental data from patent publication US20260055126A1, “SMALL MOLECULE COMPOUNDS WITH PHOSPHORYLATED ARYL STRUCTURES AND USE THEREOF” (HANGZHOU PHECDAMED CO., LTD., priority 2022, published 2026).

Key:
Format in all cases: binding
Settings in all cases: 10 μM TEAD protein, 50 μM test compound
[1] = target: recombinant TEAD4 protein (217-434, Uniprot ID: Q15561) (Homo sapiens (Human), UniProt Q15561); assay: Thermal shift assay (protein melting point curve), TEAD4
Protocol: (§1) The ability of the compounds to increase the melting point of purified recombinant TEAD1/2/3/4 proteins is tested using a thermal shift assay. The strength of the compound's binding to the protein and the selectivity of the compound's binding to the four TEAD subtypes are evaluated by calculating the melting point shift ΔTm−° C. […] Based on the Δ Tm value, the ability of the compound to bind to the TEAD protein is divided into four levels: ++++, +++, ++, +.
(§2) Test method of protein melting point curve: 10 μL of the protein melting point curve experimental system (10 μM TEAD protein, 50 μM test compound, SYPRO® orange (55692, sigma)) is prepared in a 384-well fluorescence quantitative PCR plate according to the following system, and reacted at 4° C. in the dark for 20 minutes. On-machine reaction: ABI QuantStudio Dx fluorescence quantitative PCR instrument; program: from 25° C. to 80° C., increasing the temperature at a rate of 0.05° C./s, and reading the fluorescence channel signal of the corresponding wavelength of SYPRO® orange every second.

[2] = target: recombinant TEAD3 protein (218-435, Uniprot ID: Q99594) (Homo sapiens (Human), UniProt Q99594); assay: Thermal shift assay (protein melting point curve), TEAD3
Protocol: as §1, §2

[3] = system: recombinant TEAD1 protein (194-411, Uniprot ID: P28347); assay: Thermal shift assay (protein melting point curve), TEAD1; parameters: key to the marks not given beside the values
Protocol: as §1, §2

[4] = target: recombinant TEAD2 protein (218-447, Uniprot ID: Q15562) (Homo sapiens (Human), UniProt Q15562); assay: Thermal shift assay (protein melting point curve), TEAD2
Protocol: as §1, §2

Sequence of recombinant TEAD4 protein (217-434, Uniprot ID: Q15561) (Q15561 217-434): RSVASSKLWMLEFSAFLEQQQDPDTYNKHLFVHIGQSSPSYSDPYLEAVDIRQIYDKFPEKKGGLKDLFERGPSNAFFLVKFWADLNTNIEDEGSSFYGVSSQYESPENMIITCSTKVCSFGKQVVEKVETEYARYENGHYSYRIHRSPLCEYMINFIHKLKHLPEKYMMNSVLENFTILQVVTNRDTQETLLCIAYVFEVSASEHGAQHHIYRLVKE
Sequence of recombinant TEAD3 protein (218-435, Uniprot ID: Q99594) (Q99594 218-435): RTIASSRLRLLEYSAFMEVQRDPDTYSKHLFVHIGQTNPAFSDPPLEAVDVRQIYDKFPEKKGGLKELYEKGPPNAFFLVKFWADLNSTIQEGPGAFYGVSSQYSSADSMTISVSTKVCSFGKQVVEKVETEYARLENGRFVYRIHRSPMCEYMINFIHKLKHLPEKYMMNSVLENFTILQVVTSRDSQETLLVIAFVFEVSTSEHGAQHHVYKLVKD
Sequence of recombinant TEAD2 protein (218-447, Uniprot ID: Q15562) (Q15562 218-447): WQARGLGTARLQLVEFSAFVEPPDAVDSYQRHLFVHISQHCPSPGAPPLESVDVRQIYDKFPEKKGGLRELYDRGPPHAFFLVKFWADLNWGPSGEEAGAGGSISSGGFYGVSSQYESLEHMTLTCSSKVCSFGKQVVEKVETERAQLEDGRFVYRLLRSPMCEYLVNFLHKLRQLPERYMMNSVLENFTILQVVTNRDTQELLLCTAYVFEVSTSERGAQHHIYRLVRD

SMILES	Δ T m (TEAD4) [1]	Δ T m (TEAD3) [2]	Δ T m (TEAD1) [3]	Δ T m (TEAD2) [4]
O=P1(c2ccc(Nc3ccc(C(F)(F)F)cc3)c(-c3nccc(OC4COC4)n3)c2)CCNCC1 [Compound 60]	++	+	+++	+
CP(C)(=O)c1ccc(Nc2ccc(C(F)(F)F)cc2)c(-c2nccc(OCCO)n2)c1 [Compound 19]	+	++	++	++
CP(C)(=O)c1ccc(NC23CC(C(F)(F)F)(C2)C3)c(-c2nccc(OC3COC3)n2)c1 [Compound 37]	++	++	++	++
CP(C)(=O)c1cnc(Nc2ccc(C(F)(F)F)cc2)c(-c2nccc(OC3COC3)n2)c1 [Compound 39]	++	+	++++	+
CP(C)(=O)c1ccc(Nc2ccc(C(F)(F)F)cc2)c(-c2cn(C3COC3)nn2)c1 [Compound 41]	+++	++	+++	+++
CP(C)(=O)c1ccc(Nc2ccc(C(F)(F)F)cc2)c(-c2cnn(C3CCOCC3)c2)c1 [Compound 51]	++	++	++	++
CP(C)(=O)c1ccc(NCc2ccc(C(F)(F)F)cc2)c(-c2nccc(N3CCC(O)C3)n2)c1 (centres unmarked) [Compound 54]	++	+	++	+
COCc1cccn(-c2cc(P(C)(C)=O)ccc2Nc2ccc(C(F)(F)F)cc2)c1=O [Compound 48]	+	+	++	+
CP(C)(=O)c1ccc(NCc2ccc(C(F)(F)F)cc2)c(-c2ncn(C3CCOCC3)n2)c1 [Compound 55]	++	+	++	+
CP(C)(=O)c1ccc(Nc2ccc(Br)cc2)c(-c2nccc(OC3COC3)n2)c1 [Compound 26]	++++	+	++++	++
CP(C)(=O)c1ccc(NC23CCC(CC2)CC3)c(-c2nccc(OC3COC3)n2)c1 [Compound 38]	+++	+	+++	+
CP(C)(=O)c1ccc(Nc2ccc(C(F)(F)F)cc2)c(-c2csc(OC3COC3)n2)c1 [Compound 71]	++	+	++	+
CP(C)(=O)c1ccc(NCc2cc(F)cc(F)c2)c(-c2ncccn2)c1 [Compound 44]	++	+	++	++
CC1OCCC1S(=O)(=O)c1csc(-c2cc(P(C)(C)=O)ccc2Nc2ccc(C(F)(F)F)cc2)n1 (centres unmarked) [Compound 23]	+	+	++	+
CP(C)(=O)c1ccc(Nc2ccc(C(F)(F)F)cc2)c(-c2cnn(CC3COC3)c2)c1 [Compound 16]	+++	++	+++	++
CP(C)(=O)c1ccc(Nc2ccc(C(F)(F)F)cc2)c(-c2ncn(C3CCOCC3)n2)c1 [Compound 34]	++	+	++	+

SMILES	Δ T m (TEAD4) [1]	Δ T m (TEAD3) [2]	Δ T m (TEAD1) [3]	Δ T m (TEAD2) [4]
CP(C)(=O)c1ccc(Nc2ccc(C(F)(F)F)cc2)c(-c2cn(C3COC3)cn2)c1 [Compound 70]	++	+	++	++
CP(C)(=O)c1ccc(Nc2ccc(C(F)(F)F)cc2)c(-c2nccc(OC3COC3)c2C#N)c1 [Compound 36]	+++	+	++	+
CP(C)(=O)c1ccc(Nc2ccc(C(F)(F)F)cc2)c(-n2cc(C3CCOCC3)cn2)c1 [Compound 33]	++	+	++	+
CP(C)(=O)c1ccc(Nc2ccc(C(F)(F)F)cc2)c(-c2ncn3ccccc23)c1 [Compound 40]	++	++	++	++
CP(C)(=O)c1ccc(NCc2cc(F)cc(F)c2)c(-c2nccc(OC3COC3)n2)c1 [Compound 62]	+	+	++	+
CP(C)(=O)c1ccc(Nc2ccc(C(F)(F)F)cc2)c(-c2nnc(COC3COC3)o2)c1 [Compound 57]	+	+	++	+
CP(C)(=O)c1ccc(Nc2cccc(OC(F)(F)F)c2)c(-c2nccc(OC3COC3)n2)c1 [Compound 67]	+++	+	+++	++
CP(C)(=O)c1ccc(Nc2ccc(C(F)(F)F)cc2)c(-c2nnc(NCCO)o2)c1 [Compound 12]	+	+	++	+
Cc1nc(-c2cc(P(C)(C)=O)ccc2NCc2ccc(C(F)(F)F)cc2)no1 [Compound 5]	++++	++	++++	+++
CP(C)(=O)c1ccc(Nc2ccc(C(F)(F)F)cc2)c(-c2ccn(C3CCOCC3)n2)c1 [Compound 25]	++	++	++	++
CP(C)(=O)c1ccc(Nc2ccc(C(F)(F)F)cc2)c(-c2cnn(C3COC3)c2)c1 [Compound 15]	+++	++	+++	++
CP(C)(=O)c1ccc(NC2CCc3cc(C(F)(F)F)ccc32)c(-c2ncccn2)c1 (centres unmarked) [Compound 42]	+	+	++	++
COCc1cccn(-c2cc(P(C)(C)=O)ccc2NCc2ccc(C(F)(F)F)cc2)c1=O [Compound 59]	+	+	++	+
Cc1nc(-c2cc(P(C)(C)=O)ccc2NCc2cccc(C(F)(F)F)c2)no1 [Compound 49]	++	++	+++	+
CP(C)(=O)c1ccc(Nc2ccc(C(F)(F)F)cc2)c(-c2cn(Cc3ccccn3)cn2)c1 [Compound 2]	++	++	+++	+
Cn1cnc(-c2cc(P(C)(C)=O)ccc2NC2CCC(C(F)(F)F)CC2)c1 (centres unmarked) [Compound 63]	+++	+	++++	+++
